Laboratory results reported in patent US20240285572A1 (priority 2023, published 2024).

Columns and labels:
retinal blood flow = conditions: oral; glaucoma patients and diabetics; Zurakowski 1998, Weigert 2008; cited from earlier work
[1] = test system: acute central retinal artery occlusion; conditions: sublingual route; cited from earlier work
[2] = test system: human patients having central serous chorioretinopathy (CSCR); test: Central macular thickness by OCT in CSCR patients given isosorbide dinitrate; format: in vivo
Experimental: The nitric-oxide releasing agent isosorbide dinitrate was given orally at 5 mg twice per day dosage for sublingual administration for 7 days for 7 human patients (CL, WZ, XC, LL, BZ, XZ, and LS) having central serous chorioretinopathy (CSCR). Average age of the patients is 41.6 years. 5 men and 2 women were enrolled in this study.

| Structure (SMILES) | Retinal blood flow (retinal blood flow) | Treatment outcome in acute central retinal artery occlusion [1] | Central macular OCT thickness, overall change ([2]; 7 human CSCR patients, 5 mg twice per day sublingual for 7 days, 7-10 days after treatment) | Subretinal fluid status after treatment ([2]; patient, eye OD) |
| --- | --- | --- | --- | --- |
| O=[N+]([O-])OCC(CO[N+](=O)[O-])O[N+](=O)[O-] [nitroglycerin, 1,2,3-Tris(nitrooxy)propane] | retinal blood flow improves | variable success | – | – |
| O=[N+]([O-])O[C@H]1CO[C@H]2[C@@H]1OC[C@H]2O[N+](=O)[O-] [isosorbide dinitrate, 1,4:3,6-dianhydro-2,5-di-O-nitro-D-glucitol] | – | – | generalized decrease | fluid resolved) |
